Where a name gives a salt, the structure may show the parent alone.
Target: T1, P2X7 receptor (Homo sapiens, UniProt Q99572)
T1 construct: 200 μl of a suspension of THP-1 cells; endogenous in cells; host or cells: THP-1 cells
T1 sequence (Q99572 1-595): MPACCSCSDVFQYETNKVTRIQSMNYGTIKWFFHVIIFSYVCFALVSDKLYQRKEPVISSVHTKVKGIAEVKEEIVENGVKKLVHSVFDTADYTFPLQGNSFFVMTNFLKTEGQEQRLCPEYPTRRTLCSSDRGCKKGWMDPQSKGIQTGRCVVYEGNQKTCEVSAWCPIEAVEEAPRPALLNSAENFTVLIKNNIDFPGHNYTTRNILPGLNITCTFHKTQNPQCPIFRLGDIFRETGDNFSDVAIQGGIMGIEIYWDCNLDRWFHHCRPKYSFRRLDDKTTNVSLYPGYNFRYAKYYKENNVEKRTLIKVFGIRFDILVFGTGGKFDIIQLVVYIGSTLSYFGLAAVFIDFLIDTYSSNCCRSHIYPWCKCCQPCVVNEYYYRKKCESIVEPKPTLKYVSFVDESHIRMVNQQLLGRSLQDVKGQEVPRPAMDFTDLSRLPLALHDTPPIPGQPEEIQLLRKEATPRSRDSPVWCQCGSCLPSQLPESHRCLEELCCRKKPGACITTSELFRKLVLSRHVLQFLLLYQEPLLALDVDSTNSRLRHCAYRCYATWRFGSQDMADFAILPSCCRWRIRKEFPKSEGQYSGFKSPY
Experiment: bbATP-induced ethidium bromide fluorescence in THP-1 cells, P2X7 receptor antagonist activity
Format: cell-based
Details: negative logarithm of concentration reducing bbATP agonist activity by 50%, 10^-5M bbATP, 37° C. one hour
Text: Certain compounds such as benzoylbenzoyl adenosine triphosphate (bbATP) are known to be agonists of the P2X7 receptor, effecting the formation of pores in the plasma membrane (Drug Development Research (1996), 37(3), p. 126). Consequently, when the receptor is activated using bbATP in the presence of ethidium bromide (a fluorescent DNA probe), an increase in the fluorescence of intracellular DNA-bound ethidium bromide is observed. The increase in fluorescence can be used as a measure of P2X7 receptor activation and therefore to quantify the effect of a compound on the P2X7 receptor.
In this manner, each of the title compounds of the Examples was tested for antagonist activity at the P2X7 receptor. Thus, the test was performed in 96-well flat bottomed microtitre plates, the wells being filled with 250 μl of test solution comprising 200 μl of a suspension of THP-1 cells (2.5×10^6 cells/ml) containing 10^−4M ethidium bromide, 25 μl of a high potassium buffer solution containing 10^−5M bbATP, and 25 μl of the high potassium buffer solution containing 3×10^−5M test compound. The plate was covered with a plastics sheet and incubated at 37° C. for one hour. The plate was then read in a Perkin-Elmer fluorescent plate reader, excitation 520 nm, emission 595 nm, slit widths: Ex 15 nm, Em 20 nm. For the purposes of comparison, bbATP (a P2X7 receptor agonist) and pyridoxal 5-phosphate (a P2X7 receptor antagonist) were used separately in the test as controls.

SMILES | IC50
CNCCCN(C)c1ccc2c(NC(=O)C[C@@H](C)c3ccccc3)c(Cl)ccc2n1 [Example 3, (βR)-N-[6-Chloro-2-[methyl[3-(methylamino)propyl]amino]-5-quinolinyl]-β-methyl-benzenepropanamide, ditrifluoroacetate] | 31.6 nM
O=C(CCc1ccccc1Cl)Nc1c(Cl)ccc2nc(N3CCC(C(=O)O)CC3)ccc12 [Example 20, 1-[6-Chloro-5-[[3-(2-chlorophenyl)-1-oxopropyl]amino]-2-quinolinyl]-4-piperidinecarboxylic acid, potassium salt] | 794 nM

Source: patent US20080058293A1, “Quinoline Derivates and Their Use in Therapy” (priority 2003, published 2008)
